The record followed here is US6365597B1, “4-aza steroids” (Aventis Pharmaceuticals Inc., priority 1996, dated 2002).

As to `CC12CCC3C(CC[C@H]4NC(=O)CCC34C)C1CC[C@@H]2OC1CC1` (stereo partly drawn) [MDL 103,432, 17β-Cyclopropyloxy-4-aza-5α-androstan-3-one], the melting point – broadly, the temperature, or range, at which the solid turns liquid – was 237.5 to 238.5 °C.
